The values below come from patent publication US20140315883A1, “6H-IMIDAZO[1,5-a]PYRROLO[2,3-e]PYRAZINE COMPOUNDS” (ABBVIE INC., priority 2013, published 2014).

For series [1] the following is noted: patients in clinical trials; cited from earlier work.
For series [2], the target named is T1, Syk (Homo sapiens, UniProt P43405).
T1 construct: Purified Syk catalytic domain (aa 356-635 with a C-terminal His-tag purified in-house); His-tag (C); made in house
Kind of series: In vitro Syk kinase activity measured by trFRET. It is filed as biochemical. As to conditions: Syk catalytic domain, 0.001 mM ATP. The method, then: In Vitro Syk Kinase Activity Measured by Time-Resolved Fluorescence Resonance Energy Transfer (trFRET)
After about 60 min incubation at rt, the reaction was quenched by addition of EDTA (final concentration: 100 mM) and developed by addition of revelation reagents (final approximate concentrations: 30 mM HEPES pH 7.0, 0.06% BSA, 0.006% Tween-20, 0.24 M KF, 80 ng/mL PT66K (europium labeled anti-phosphotyrosine antibody cat #61T66KLB Cisbio, Bedford, Mass.) and 0.6 μg/mL SAXL (Phycolink streptavidin-allophycocyanin acceptor, cat #PJ25S, Prozyme, San Leandro, Calif.). The developed reaction was incubated in the dark either at about 4° C. for about 14 h or for about 60 min at rt, then read via a time-resolved fluorescence detector (Rubystar, BMG) using a 337 nm laser for excitation and monitoring emission wavelengths at 665 nm. Within the linear range of the assay, the observed signal at 665 nm was directly related to phosphorylated product and can be used to calculate the IC50 values.

The structures appear in SMILES notation.

As a reminder, the IC50 is the concentration needed to halve the response being measured.

As to `CCN(CC)CCNC(=O)c1c(C)[nH]c(/C=C2\C(=O)Nc3ccc(F)cc32)c1C` [sunitibnib, sunitinib], in series [1], the risk for hypertension entry is “increased risk for hypertension”.

On to `CCOc1ccc(-c2nc([C@H]3C[C@@H](O)CN3C(C)=O)n3c2cnc2[nH]ccc23)cc1C` [F.1.28, 1-((2R,4R)-2-(3-(4-ethoxy-3-methylphenyl)-6H-imidazo[1,5-a]pyrrolo[2,3-e]pyrazin-1-yl)-4-hydroxypyrrolidin-1-yl)ethanone], for which the IC50 in series [2] is under 10 nM.

For the molecule `CC(=O)N1C[C@H](O)C[C@@H]1c1nc(-c2ccc(N3CCO[C@H](C)C3)cc2)c2cnc3[nH]ccc3n12` [Example #5 (R), 1-((2R,4R)-4-hydroxy-2-(3-(4-((R)-2-methylmorpholino)phenyl)-6H-imidazo[1,5-a]pyrrolo[2,3-e]pyrazin-1-yl)pyrrolidin-1-yl)ethanone], in series [2], the concentration for half-maximal inhibition (IC50) was under 10 nM.
